Experimental data: patent US20250092360A1, “METHODS AND COMPOSITIONS FOR GENERATING SOMATOSTATIN+ INTERNEURONS FROM HUMAN FOREBRAIN NEURAL PROGENITOR CELLS” (Trailhead Biosystems Inc., priority 2023, published 2025)
“Also recorded” adds a separate entry of the source.

Tests used:
[1] = test system: stage 2 neural stem cells; assay: HD-DoE stage 3 experiment: ASCL1, LHX6, DLX1 expression; type: cell-based, human
[2] = test system: stage 2 neural stem cells; assay: Factor criticality analysis, stage 3 recipe; type: cell-based, human; details: other five stage 3 factors present

Compound: c1ccc2c(Oc3nc(Nc4ccc(N5CCOCC5)cc4)c4ncn(C5CCCCC5)c4n3)cccc2c1 [Purmorphamine]
- impact on expression of ASCL1 ([1]; dynamic profile, in words): positive trends; also recorded: Positive impact
- impact on expression of DLX1 ([1]; dynamic profile, in words): did not have a significant negative impact
- impact on expression of LHX6 ([1]; dynamic profile, in words): positive trends; also recorded: Positive impact
- factor contribution, expression of ASCL1 ([1]; positive, model optimized for maximum ASCL1 at 1700): 12.7
- expression level of DLX1 when the factor is removed ([2]; 220 with all six factors): stayed the same
- expression level of LHX6 when the factor is removed ([2]; 240 with all six factors): 190
- expression level of ASCL1 when the factor is removed ([2]; 1650 with all six factors): 1200
